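Following 48 hours of exposure in 96-well plates, responses at five concentrations were used to interpolate endpoints linearly. GI50 is the concentration that inhibits growth by half.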 Activity calls are given as the source filed them. No stated cut-off is given here; in the data, active = GI50 up to about 1.1 µM and inactive = higher.
Key:
Test in all cases: inhibition of tumour cell growth, NCI panel, 48 h
[1] = tested on: OVCAR-5
[2] = tested on: RXF 393
[3] = tested on: M14
[4] = tested on: NCI-H522
[5] = tested on: CCRF-CEM
[6] = tested on: SW-620
[7] = tested on: IGROV-1
[8] = tested on: SK-MEL-28
[9] = tested on: SNB-19
[10] = tested on: KM12
[11] = tested on: SF-268
[12] = tested on: SF-295
[13] = tested on: UACC-257
[14] = tested on: LOX IMVI
[15] = tested on: HOP-62
[16] = tested on: A549
[17] = tested on: HL-60
[18] = tested on: SR

Measured: GI50

CCOC(=O)C1=C(NC)OCC1=O
inactive: [1] > 100 µM | [2] > 100 µM | [3] > 100 µM | [4] > 100 µM | [5] > 100 µM | [6] > 100 µM | [7] > 100 µM | [8] > 100 µM | [9] > 100 µM | [10] > 100 µM | [11] > 100 µM | [12] > 100 µM | [13] > 100 µM | [14] > 100 µM | [15] > 100 µM | [16] > 100 µM | [17] > 100 µM

O=C(O)C(Cl)(Cl)Cl
inactive: [1] > 100 µM | [2] > 100 µM | [3] > 100 µM | [5] > 100 µM | [18] > 100 µM | [6] > 100 µM | [7] > 100 µM | [8] > 100 µM | [9] > 100 µM | [10] > 100 µM | [11] > 100 µM | [12] > 100 µM | [13] > 100 µM | [14] > 100 µM | [16] > 100 µM | [17] > 100 µM

COC(=O)[C@H](Cc1ccccc1)NC(=O)/C(=C/C(C)C)NC(=O)[C@H](CCSC)NC=O
inactive: [2] > 100 µM | [3] > 100 µM | [4] > 100 µM | [5] > 100 µM | [18] > 100 µM | [6] > 100 µM | [7] > 100 µM | [8] > 100 µM | [9] > 100 µM | [10] > 100 µM | [11] > 100 µM | [12] > 100 µM | [13] > 100 µM | [14] > 100 µM | [15] > 100 µM | [16] > 100 µM | [17] > 100 µM

COc1ccc(C=O)c(NC(=O)C(C)C)c1
inactive: [1] > 100 µM | [2] 12.3 µM | [3] 37.6 µM | [4] 15.9 µM | [5] > 10 µM | [6] > 10 µM | [7] > 100 µM | [8] 69.2 µM | [9] 72.1 µM | [10] > 10 µM | [11] 36.2 µM | [12] 32.7 µM | [13] 27.2 µM | [14] 31.7 µM | [16] 27.2 µM

O=c1cccccc1NCCCCCCNc1cccccc1=O
inactive: [1] > 100 µM | [3] > 100 µM | [4] > 100 µM | [5] > 100 µM | [6] > 100 µM | [7] > 100 µM | [8] > 100 µM | [9] > 100 µM | [10] > 100 µM | [11] > 100 µM | [12] > 100 µM | [13] > 100 µM | [14] > 100 µM | [15] > 100 µM | [16] > 100 µM | [17] > 100 µM

O=C1c2ccccc2CCCCCCCCCCC12OCCCO2
inactive: [1] 26.7 µM | [2] 10.6 µM | [3] 51.3 µM | [4] 24.5 µM | [5] 25.3 µM | [7] 41.4 µM | [8] 55.8 µM | [9] 29.5 µM | [10] 27.6 µM | [11] 11.8 µM | [12] 34.7 µM | [13] 24 µM | [14] 29.2 µM | [15] 49.9 µM | [16] 28.8 µM | [17] 16 µM

COC1(Cc2ccccc2)C(=O)c2ccccc2N1C(C)=O (stereo unspecified)
inactive: [2] > 100 µM | [3] > 100 µM | [5] > 100 µM | [18] > 100 µM | [6] > 100 µM | [7] > 100 µM | [8] > 100 µM | [9] > 100 µM | [10] > 100 µM | [12] > 100 µM | [13] > 100 µM | [15] > 100 µM | [16] > 100 µM | [17] > 100 µM

CCOc1ccc(C2=C(Cl)c3cc(OC)c(OC)cc3C2Cl)cc1 (stereo unspecified)
inactive: [3] 35.8 µM | [4] 17.2 µM | [5] 25.2 µM | [6] 29.2 µM | [7] 72.4 µM | [8] 87.5 µM | [9] > 100 µM | [11] 59.6 µM | [12] 35 µM | [14] 19.5 µM | [17] 13.4 µM

C/C(=N\NC(=S)Nc1ccc([N+](=O)[O-])cc1S(=O)(=O)O)c1ccccn1
inactive: [1] 39.9 µM | [2] 38.8 µM | [3] 64 µM | [5] 39.9 µM | [18] 32.6 µM | [6] 26.5 µM | [7] 73.1 µM | [8] > 100 µM | [10] 51.8 µM | [11] 95.3 µM | [12] > 100 µM | [13] > 100 µM | [14] 53.2 µM | [15] 76.9 µM | [16] 37.7 µM | [17] 31.7 µM

CCCCCC(=O)c1ccc2[nH]c3c(C)cc([N+](=O)[O-])c(C)c3c2c1
inactive: [1] > 100 µM | [3] 70 µM | [4] > 100 µM | [5] 91.2 µM | [18] 56.8 µM | [6] 80.2 µM | [8] > 100 µM | [9] > 100 µM | [10] > 100 µM | [11] > 100 µM | [12] 94.6 µM | [13] > 100 µM | [14] > 100 µM | [15] > 100 µM | [16] 49.4 µM | [17] 98.2 µM

COC(=O)C1=C(OC)c2cc3c(cc2C(c2cc(OC)c(OC)c(OC)c2)C1C(=O)OC)OCO3 (stereo unspecified)
inactive: [1] > 100 µM | [2] 49 µM | [3] > 100 µM | [5] > 100 µM | [18] 96.4 µM | [6] > 100 µM | [7] > 100 µM | [8] > 100 µM | [10] > 100 µM | [11] > 100 µM | [12] 59.7 µM | [13] > 100 µM | [14] > 100 µM | [15] > 100 µM | [16] > 100 µM | [17] > 100 µM

O=C(CC(=O)c1ccccc1)CC(O)(c1ccccc1)c1ccccc1
inactive: [1] 11.3 µM | [3] 3.61 µM | [4] 3.12 µM | [5] 3.37 µM | [18] 2.88 µM | [6] 4.02 µM | [8] 13.1 µM | [9] 3.92 µM | [10] 7.76 µM | [11] 6.9 µM | [12] 4.42 µM | [13] 13.2 µM | [15] 3.34 µM | [17] 2.01 µM

CCOC(=O)/C=C/n1c2ccccc2c(=O)c2cc(OC)ccc21
inactive: [1] > 100 µM | [2] > 100 µM | [3] > 100 µM | [4] 54.2 µM | [5] 50.8 µM | [18] 28.2 µM | [7] > 100 µM | [8] > 100 µM | [9] 61.2 µM | [10] > 100 µM | [11] > 100 µM | [12] > 100 µM | [13] > 100 µM | [14] 20.7 µM | [15] > 100 µM | [16] > 100 µM | [17] > 100 µM

CP(=O)(CCSc1ccccc1)c1ccccc1 (stereo unspecified)
inactive: [2] > 100 µM | [3] > 100 µM | [5] > 100 µM | [18] > 100 µM | [6] > 100 µM | [7] > 100 µM | [8] > 100 µM | [9] > 100 µM | [11] > 100 µM | [12] > 100 µM | [13] > 100 µM | [14] > 100 µM | [15] > 100 µM | [16] > 100 µM | [17] 35.6 µM

CC1S(=O)(=O)OCCOS1(=O)=O
inactive: [1] > 100 µM | [2] > 73.5 µM | [3] > 100 µM | [4] > 78 µM | [5] 50 µM | [6] > 100 µM | [7] > 100 µM | [8] > 100 µM | [9] 39.7 µM | [10] > 100 µM | [11] 32.1 µM | [12] 50.4 µM | [13] > 94.2 µM | [14] 52.2 µM | [15] > 100 µM | [16] > 95.5 µM | [17] 29.7 µM

CC(C)OC(=O)c1cc(NC(=O)C(C)(C)C)c(F)cc1Cl
inactive: [1] > 100 µM | [2] > 100 µM | [3] > 100 µM | [4] > 100 µM | [5] > 100 µM | [6] > 100 µM | [7] > 100 µM | [8] > 100 µM | [9] > 100 µM | [10] > 100 µM | [11] > 100 µM | [12] > 100 µM | [13] > 100 µM | [14] > 100 µM | [15] > 100 µM | [16] > 100 µM | [17] 62.5 µM

O=c1cc2ccccc2nn1Cc1ccccc1Cl
inactive: [1] > 100 µM | [3] > 100 µM | [5] > 100 µM | [6] > 100 µM | [7] > 100 µM | [8] > 100 µM | [9] > 100 µM | [10] > 100 µM | [11] > 100 µM | [12] > 100 µM | [13] > 100 µM | [14] > 100 µM | [15] > 100 µM | [16] > 100 µM

COc1cc(Cc2cc(OC)c(OC)c(OC)c2)ccc1O
inactive: [1] > 100 µM | [3] 5 µM | [4] 9.31 µM | [5] 6.32 µM | [18] 6.08 µM | [6] 3.56 µM | [7] > 100 µM | [8] 39.7 µM | [9] 23.9 µM | [10] 6.62 µM | [11] 36.3 µM | [12] 4.57 µM | [13] 22.4 µM | [14] 8.57 µM | [15] 26.8 µM | [16] 8.59 µM | [17] 2.27 µM

From ChEMBL document CHEMBL1201862, “PubChem BioAssay data set” (2004)
